In PubChem BioAssay (NCI):
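96-well plates; 48 h exposure; 5 concentrations. Endpoints by linear interpolation between flanking doses. Not reached: highest tested concentration assigned. TGI is the concentration that stops growth completely.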

Legend:
Assay in all cases: NCI anticancer screen, dose series, 48 h
M14 melanoma = system: M14 melanoma
HCT-15 colon = system: HCT-15 colon
LOX IMVI melanoma = system: LOX IMVI melanoma
SK-OV-3 ovarian = system: SK-OV-3 ovarian
SK-MEL-5 melanoma = system: SK-MEL-5 melanoma
KM12 colon = system: KM12 colon
EKVX NSCLC = system: EKVX NSCLC
CCRF-CEM leukemia = system: CCRF-CEM leukemia
NCI-H226 lung = system: NCI-H226 lung
OVCAR-3 ovarian = system: OVCAR-3 ovarian
RXF 393 renal = system: RXF 393 renal

`CN(C)c1ccc(/C(Br)=C2\OC(=O)c3ccccc32)cc1` was tested, and the TGI (M14 melanoma) was over 100 µM, the TGI (HCT-15 colon) was over 100 µM and the TGI (LOX IMVI melanoma) was over 100 µM. It also gave a TGI (SK-OV-3 ovarian) of over 100 µM, a TGI (SK-MEL-5 melanoma) of over 100 µM and a TGI (KM12 colon) of over 100 µM. It also gave a TGI (EKVX NSCLC) of over 100 µM, a TGI (CCRF-CEM leukemia) of over 100 µM and a TGI (NCI-H226 lung) of over 100 µM.
Molecule `O=C1CC(c2ccc([N+](=O)[O-])cc2)C2(C(=O)NC(=S)NC2=O)C(c2ccc([N+](=O)[O-])cc2)C1` (stereo unspecified) has a TGI (M14 melanoma) of 45.7 µM, a TGI (HCT-15 colon) of 58 µM and a TGI (LOX IMVI melanoma) of 39.4 µM. The TGI (SK-OV-3 ovarian) was over 100 µM, the TGI (SK-MEL-5 melanoma) was 99.1 µM and the TGI (OVCAR-3 ovarian) was 76.1 µM. The TGI (KM12 colon) was 36.3 µM, the TGI (EKVX NSCLC) was 82.9 µM and the TGI (CCRF-CEM leukemia) was over 100 µM. For the same molecule, the TGI (NCI-H226 lung) was 36.9 µM.
With `Cc1cccc(N(CCC#N)S(=O)(=O)c2ccccc2)c1` the TGI (M14 melanoma) was over 100 µM, the TGI (LOX IMVI melanoma) was over 100 µM and the TGI (SK-OV-3 ovarian) was over 100 µM. It also gave a TGI (SK-MEL-5 melanoma) of over 100 µM, a TGI (OVCAR-3 ovarian) of over 100 µM and a TGI (KM12 colon) of over 100 µM. For the same molecule, the TGI (EKVX NSCLC) was over 100 µM, the TGI (CCRF-CEM leukemia) was over 100 µM and the TGI (NCI-H226 lung) was over 100 µM.
Molecule `COC1C=CC23c4cc5c(cc4C(O)OC2CN(C)C3C1)OCO5` (stereo unspecified) has a TGI (M14 melanoma) of 3.15 µM, a TGI (LOX IMVI melanoma) of 6.85 µM and a TGI (SK-MEL-5 melanoma) of 1.65 µM. For the same molecule, the TGI (OVCAR-3 ovarian) was 5.8 µM, the TGI (KM12 colon) was 13.4 µM and the TGI (EKVX NSCLC) was 32.9 µM. It also gave a TGI (CCRF-CEM leukemia) of 7.21 µM and a TGI (NCI-H226 lung) of 5.36 µM.
Work on `O=C(O)c1ccc(NS(=O)(=O)Cc2ccccc2)cc1` yielded a TGI (M14 melanoma) of over 100 µM, a TGI (HCT-15 colon) of over 100 µM and a TGI (LOX IMVI melanoma) of over 100 µM. The TGI (SK-OV-3 ovarian) was over 100 µM, the TGI (SK-MEL-5 melanoma) was over 100 µM and the TGI (OVCAR-3 ovarian) was over 100 µM. For the same molecule, the TGI (KM12 colon) was over 100 µM, the TGI (RXF 393 renal) was over 100 µM and the TGI (EKVX NSCLC) was over 100 µM. For the same molecule, the TGI (CCRF-CEM leukemia) was over 100 µM.
`O=C(OCc1ccccc1)OOC(=O)OCc1ccccc1` gave a TGI (M14 melanoma) of over 100 µM, a TGI (HCT-15 colon) of over 100 µM and a TGI (SK-OV-3 ovarian) of over 100 µM. It also gave a TGI (SK-MEL-5 melanoma) of over 100 µM, a TGI (OVCAR-3 ovarian) of over 100 µM and a TGI (KM12 colon) of over 100 µM. It also gave a TGI (RXF 393 renal) of over 100 µM, a TGI (EKVX NSCLC) of over 100 µM and a TGI (CCRF-CEM leukemia) of over 100 µM.
In the case of `C[C@]12CC/C(=N\O)C=C1CC[C@@H]1[C@@H]2CC[C@]2(C)C(=N/O)/C(=C/c3cccnc3)C[C@@H]12`, the TGI (M14 melanoma) is reported as 75 µM, the TGI (HCT-15 colon) is reported as 44.5 µM and the TGI (LOX IMVI melanoma) is reported as 9.74 µM. The TGI (SK-OV-3 ovarian) was over 100 µM, the TGI (KM12 colon) was 32.1 µM and the TGI (EKVX NSCLC) was 79.5 µM. The TGI (CCRF-CEM leukemia) was over 100 µM and the TGI (NCI-H226 lung) was 18.1 µM.
Work on `c1ccc2c(c1)CCCN1CCc3ccccc3C21` (stereo unspecified) yielded a TGI (M14 melanoma) of over 100 µM, a TGI (HCT-15 colon) of over 100 µM and a TGI (LOX IMVI melanoma) of over 100 µM. For the same molecule, the TGI (SK-OV-3 ovarian) was over 100 µM, the TGI (SK-MEL-5 melanoma) was 70.9 µM and the TGI (OVCAR-3 ovarian) was over 100 µM. It also gave a TGI (KM12 colon) of over 100 µM, a TGI (EKVX NSCLC) of over 100 µM and a TGI (CCRF-CEM leukemia) of over 100 µM. The TGI (NCI-H226 lung) was over 100 µM.
`O=C(CCc1ccc(O)cc1)c1c(O)cc(O)cc1OC1OC(CO)C(O)C(O)C1O` (stereo unspecified) gave a TGI (M14 melanoma) of over 100 µM, a TGI (HCT-15 colon) of over 100 µM and a TGI (LOX IMVI melanoma) of over 100 µM. The TGI (SK-OV-3 ovarian) was over 100 µM, the TGI (SK-MEL-5 melanoma) was over 100 µM and the TGI (OVCAR-3 ovarian) was over 100 µM. The TGI (KM12 colon) was over 100 µM and the TGI (EKVX NSCLC) was over 100 µM.
Work on `Cc1cc(O)cc(O)c1N=Nc1ccc([N+](=O)[O-])cc1` yielded a TGI (M14 melanoma) of over 100 µM, a TGI (HCT-15 colon) of 28.9 µM and a TGI (LOX IMVI melanoma) of 84.8 µM. For the same molecule, the TGI (SK-OV-3 ovarian) was over 100 µM, the TGI (SK-MEL-5 melanoma) was 38.4 µM and the TGI (OVCAR-3 ovarian) was over 100 µM. The TGI (KM12 colon) was 63.1 µM, the TGI (RXF 393 renal) was 40.5 µM and the TGI (EKVX NSCLC) was 90.8 µM. It also gave a TGI (CCRF-CEM leukemia) of over 100 µM.
Molecule `COc1cccc(C2c3cc4c(cc3OC(N3CCCC3)C2C)OCO4)c1OC` (stereo unspecified) has a TGI (M14 melanoma) of 23.8 µM, a TGI (HCT-15 colon) of 16.9 µM and a TGI (LOX IMVI melanoma) of 4.07 µM. For the same molecule, the TGI (SK-MEL-5 melanoma) was 12.5 µM, the TGI (OVCAR-3 ovarian) was 6.7 µM and the TGI (KM12 colon) was 15.1 µM. It also gave a TGI (EKVX NSCLC) of 97.8 µM and a TGI (CCRF-CEM leukemia) of 16.9 µM.
`O=C(O)Cc1ccc2nc(COC(=O)c3ccccc3)sc2c1` gave a TGI (M14 melanoma) of over 100 µM, a TGI (HCT-15 colon) of over 100 µM and a TGI (LOX IMVI melanoma) of over 100 µM. It also gave a TGI (SK-OV-3 ovarian) of over 100 µM, a TGI (SK-MEL-5 melanoma) of over 100 µM and a TGI (OVCAR-3 ovarian) of over 100 µM. It also gave a TGI (KM12 colon) of over 100 µM, a TGI (RXF 393 renal) of over 100 µM and a TGI (EKVX NSCLC) of over 100 µM.
`Cc1cccc(C[C@@]2(SCc3ccccc3)C(C)(C)[C@@H]3CC[C@@]2(C)C3)n1` showed a TGI (M14 melanoma) of 46.2 µM, a TGI (HCT-15 colon) of 26.8 µM and a TGI (LOX IMVI melanoma) of 30.2 µM. For the same molecule, the TGI (SK-OV-3 ovarian) was 51.4 µM, the TGI (SK-MEL-5 melanoma) was 29.4 µM and the TGI (OVCAR-3 ovarian) was 29.5 µM. For the same molecule, the TGI (KM12 colon) was 36.9 µM, the TGI (RXF 393 renal) was 30.9 µM and the TGI (EKVX NSCLC) was 40.2 µM. For the same molecule, the TGI (CCRF-CEM leukemia) was 27.6 µM.
`COC(=O)C1CC(C=[N+](C)C)=C(SC)N1` (stereo unspecified) gave a TGI (M14 melanoma) of over 100 µM, a TGI (HCT-15 colon) of over 100 µM and a TGI (SK-OV-3 ovarian) of over 100 µM. For the same molecule, the TGI (SK-MEL-5 melanoma) was over 100 µM, the TGI (OVCAR-3 ovarian) was over 100 µM and the TGI (KM12 colon) was over 100 µM. The TGI (RXF 393 renal) was over 100 µM and the TGI (EKVX NSCLC) was over 100 µM.
Molecule `O=C(/C=C/c1cccs1)c1ccc(Cl)cc1` has a TGI (HCT-15 colon) of over 100 µM, a TGI (SK-OV-3 ovarian) of over 100 µM and a TGI (SK-MEL-5 melanoma) of over 100 µM. The TGI (KM12 colon) was over 100 µM, the TGI (EKVX NSCLC) was over 100 µM and the TGI (CCRF-CEM leukemia) was 68 µM. For the same molecule, the TGI (NCI-H226 lung) was over 100 µM.
With `O=C(O[C@H](/C=C/c1ccccc1)P1(=O)N(Cc2ccccc2)[C@@H]2CCCC[C@H]2N1Cc1ccccc1)c1ccccc1` the TGI (M14 melanoma) was over 100 µM, the TGI (HCT-15 colon) was 11.1 µM and the TGI (LOX IMVI melanoma) was 11.8 µM. The TGI (SK-OV-3 ovarian) was over 100 µM, the TGI (SK-MEL-5 melanoma) was 3.88 µM and the TGI (OVCAR-3 ovarian) was 94.3 µM. The TGI (KM12 colon) was 14.2 µM, the TGI (EKVX NSCLC) was 68 µM and the TGI (CCRF-CEM leukemia) was over 100 µM. For the same molecule, the TGI (NCI-H226 lung) was 7.98 µM.
For `O=C1C(Cl)N(c2ccccc2)C1c1c[nH]c2ccccc12` (stereo unspecified), the TGI (M14 melanoma) was over 100 µM, the TGI (SK-OV-3 ovarian) was over 100 µM and the TGI (SK-MEL-5 melanoma) was over 100 µM. For the same molecule, the TGI (OVCAR-3 ovarian) was over 100 µM, the TGI (KM12 colon) was over 100 µM and the TGI (RXF 393 renal) was over 100 µM. The TGI (EKVX NSCLC) was over 100 µM and the TGI (CCRF-CEM leukemia) was over 100 µM.
For `CCOP(=O)(OCC)/C(F)=C/c1ccccc1`, the TGI (M14 melanoma) was over 100 µM, the TGI (HCT-15 colon) was over 100 µM and the TGI (LOX IMVI melanoma) was over 100 µM. It also gave a TGI (SK-OV-3 ovarian) of over 100 µM, a TGI (SK-MEL-5 melanoma) of over 100 µM and a TGI (OVCAR-3 ovarian) of over 100 µM. For the same molecule, the TGI (KM12 colon) was over 100 µM, the TGI (RXF 393 renal) was over 100 µM and the TGI (EKVX NSCLC) was over 100 µM. For the same molecule, the TGI (CCRF-CEM leukemia) was over 100 µM.
Molecule `CCOC(=O)C(=O)N1C(C)=C(C(=O)OCC)CC(C(=O)OCC)=C1C` has a TGI (M14 melanoma) of over 100 µM, a TGI (HCT-15 colon) of over 100 µM and a TGI (LOX IMVI melanoma) of over 100 µM. The TGI (SK-OV-3 ovarian) was over 100 µM, the TGI (SK-MEL-5 melanoma) was over 100 µM and the TGI (OVCAR-3 ovarian) was over 100 µM. It also gave a TGI (KM12 colon) of over 100 µM, a TGI (RXF 393 renal) of over 100 µM and a TGI (EKVX NSCLC) of over 100 µM. For the same molecule, the TGI (CCRF-CEM leukemia) was over 100 µM.
